Laboratory results: ChEMBL document CHEMBL5725537, “Pyrazolo-pyrrolidin-4-one derivatives and their use in the treatment of disease” (2017)

What was measured:
CREB-binding protein = CREB-binding protein (Homo sapiens, UniProt Q92793); experiment: AlphaScreen In-Vitro Binding Assay for CREBBP: In order to assess bromodomain selectivity, we set up a binding assay using the bromodomain encoded by the CREBBP gene. […] Reactions were incubated at 30° C. for 35 minutes. Subsequently 4.5 μl per well detection mix (50 mM HEPES, pH 7.5, 0.005% Tween20, 0.02% BSA, 150 mM NaCl, 45 μg/ml Ni-chelate acceptor beads, 45 μg/ml streptavidin-donor beads) (Perkin Elmer)) were added. After 60 minutes incubation at room temperature, plates were measured in a Perkin Elmer EnVision multilabel reader. IC50 values were determined from percent inhibition values at different compound concentrations by non-linear regression analysis.
Sequence of CREB-binding protein (Q92793 whole entry): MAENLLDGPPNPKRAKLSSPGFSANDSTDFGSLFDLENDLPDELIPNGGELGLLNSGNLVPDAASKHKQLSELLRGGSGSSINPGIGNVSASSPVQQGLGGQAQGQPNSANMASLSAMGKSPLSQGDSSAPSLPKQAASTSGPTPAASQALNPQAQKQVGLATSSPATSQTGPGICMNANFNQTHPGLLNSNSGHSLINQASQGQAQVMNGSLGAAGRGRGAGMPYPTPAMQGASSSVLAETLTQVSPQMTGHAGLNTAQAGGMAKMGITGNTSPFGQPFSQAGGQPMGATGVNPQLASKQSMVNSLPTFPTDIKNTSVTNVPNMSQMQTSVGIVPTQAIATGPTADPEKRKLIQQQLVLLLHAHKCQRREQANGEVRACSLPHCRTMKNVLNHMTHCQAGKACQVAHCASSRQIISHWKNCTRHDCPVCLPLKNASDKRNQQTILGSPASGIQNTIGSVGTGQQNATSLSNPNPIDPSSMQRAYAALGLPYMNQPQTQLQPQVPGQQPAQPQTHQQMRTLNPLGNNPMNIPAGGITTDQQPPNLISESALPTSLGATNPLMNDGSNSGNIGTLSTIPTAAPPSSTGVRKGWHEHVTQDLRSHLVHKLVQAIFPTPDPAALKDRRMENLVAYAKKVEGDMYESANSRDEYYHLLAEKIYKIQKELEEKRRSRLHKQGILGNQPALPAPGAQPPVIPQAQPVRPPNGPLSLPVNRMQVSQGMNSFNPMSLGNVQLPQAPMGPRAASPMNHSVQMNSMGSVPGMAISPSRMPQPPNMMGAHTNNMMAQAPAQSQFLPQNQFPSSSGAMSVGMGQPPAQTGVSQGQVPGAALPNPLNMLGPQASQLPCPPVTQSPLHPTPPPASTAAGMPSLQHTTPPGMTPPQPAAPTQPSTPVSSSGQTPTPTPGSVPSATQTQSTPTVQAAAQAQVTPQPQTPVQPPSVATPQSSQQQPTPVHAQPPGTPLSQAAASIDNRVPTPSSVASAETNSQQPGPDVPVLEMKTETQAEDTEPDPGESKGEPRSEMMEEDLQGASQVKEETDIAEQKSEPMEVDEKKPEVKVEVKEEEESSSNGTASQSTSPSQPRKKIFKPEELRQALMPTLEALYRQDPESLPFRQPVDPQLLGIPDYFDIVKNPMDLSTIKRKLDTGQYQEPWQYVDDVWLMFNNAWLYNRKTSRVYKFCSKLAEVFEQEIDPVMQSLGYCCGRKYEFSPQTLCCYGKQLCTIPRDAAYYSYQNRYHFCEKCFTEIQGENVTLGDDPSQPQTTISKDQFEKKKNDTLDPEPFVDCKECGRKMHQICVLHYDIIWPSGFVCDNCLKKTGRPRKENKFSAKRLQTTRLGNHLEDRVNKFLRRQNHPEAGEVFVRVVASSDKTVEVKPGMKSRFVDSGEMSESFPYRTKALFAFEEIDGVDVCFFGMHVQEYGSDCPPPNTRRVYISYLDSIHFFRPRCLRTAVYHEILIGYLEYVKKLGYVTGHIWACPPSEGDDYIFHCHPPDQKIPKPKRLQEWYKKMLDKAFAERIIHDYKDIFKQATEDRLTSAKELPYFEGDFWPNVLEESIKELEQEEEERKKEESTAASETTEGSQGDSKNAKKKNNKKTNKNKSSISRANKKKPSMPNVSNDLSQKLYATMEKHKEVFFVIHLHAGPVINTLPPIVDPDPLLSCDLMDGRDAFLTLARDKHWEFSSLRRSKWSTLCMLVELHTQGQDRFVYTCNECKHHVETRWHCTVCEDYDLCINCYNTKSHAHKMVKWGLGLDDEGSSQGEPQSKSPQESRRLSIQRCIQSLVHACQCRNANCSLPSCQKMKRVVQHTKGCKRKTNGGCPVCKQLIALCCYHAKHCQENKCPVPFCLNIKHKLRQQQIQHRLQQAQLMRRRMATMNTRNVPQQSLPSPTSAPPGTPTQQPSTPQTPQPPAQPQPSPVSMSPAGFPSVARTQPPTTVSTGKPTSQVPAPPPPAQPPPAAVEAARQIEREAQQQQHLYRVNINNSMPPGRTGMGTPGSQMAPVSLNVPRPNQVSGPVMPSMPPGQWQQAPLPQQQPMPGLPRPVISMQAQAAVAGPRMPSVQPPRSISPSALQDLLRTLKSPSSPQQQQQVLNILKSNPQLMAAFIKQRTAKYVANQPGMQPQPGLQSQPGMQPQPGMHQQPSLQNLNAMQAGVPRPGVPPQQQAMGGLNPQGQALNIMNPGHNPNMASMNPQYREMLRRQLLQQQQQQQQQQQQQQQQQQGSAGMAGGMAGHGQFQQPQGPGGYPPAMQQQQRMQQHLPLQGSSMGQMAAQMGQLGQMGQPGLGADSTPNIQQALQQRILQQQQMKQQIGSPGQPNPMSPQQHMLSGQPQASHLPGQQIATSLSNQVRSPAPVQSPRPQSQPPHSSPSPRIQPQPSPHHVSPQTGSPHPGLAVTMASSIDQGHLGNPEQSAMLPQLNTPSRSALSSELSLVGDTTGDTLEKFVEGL

[1] = biological target: Bromodomain-containing protein 4 (Homo sapiens, UniProt O60885); experiment: (§1) TR-FRET In-Vitro Binding Assays for BRD2, BRD3, and BRD4: All assays were performed in 384 well microtiter plates. Each assay plate contained 8-point serial dilutions for 40 test compounds, plus 16 high- and 16 low controls. Liquid handling and incubation steps were done on an Innovadyne Nanodrop Express equipped with a robotic arm (Thermo CatX, Perkin Elmer/Caliper Twister II) and an incubator (Liconic STX40, Thermo Cytomat 2C450). The assay plates were prepared by addition of 50 nl per well of compound solution in 90% DMSO HummingBird nanodispenser (Zinsser Analytic). The assay was started by stepwise addition of 4.5 μl per well of bromo domain protein (50 mM HEPES, pH 7.5, 0.005% Tween20, 0.1% BSA, 50 mM NaCl, 45 nM His-Brd2(60-472) or 45 nM His-Brd3(20-477) or 45 nM His-Brd4(44-477) all proteins produced in-house) and 4.5 μl per well of peptide solution (50 mM HEPES, pH 7.5, 0.005% Tween20, 0.1% BSA, 50 mM NaCl, 60 nM acetyl-histone H4 (AcK 5, 8, 12, 16) (Biosyntan GmbH)). Reactions were incubated at 30° C. for 35 minutes. Subsequently 4.5 μl per well detection mix (50 mM HEPES, pH 7.5, 0.005% Tween20, 0.1% BSA, 50 mM NaCl, 3 nM Eu-labeled anti-His6 antibody, 21 nM streptavidin-allophycocyanin) were added. After 35 minutes incubation at 30° C., plates were measured in a Perkin Elmer EnVision multilabel reader. Concentrations causing 50% inhibition (1050) values were determined from percent inhibition values at different compound concentrations by non-linear regression analysis.
[2] = biological target: Bromodomain-containing protein 3 (Homo sapiens, UniProt Q15059); experiment: as §1
Sequence of Bromodomain-containing protein 3 (Q15059 whole entry): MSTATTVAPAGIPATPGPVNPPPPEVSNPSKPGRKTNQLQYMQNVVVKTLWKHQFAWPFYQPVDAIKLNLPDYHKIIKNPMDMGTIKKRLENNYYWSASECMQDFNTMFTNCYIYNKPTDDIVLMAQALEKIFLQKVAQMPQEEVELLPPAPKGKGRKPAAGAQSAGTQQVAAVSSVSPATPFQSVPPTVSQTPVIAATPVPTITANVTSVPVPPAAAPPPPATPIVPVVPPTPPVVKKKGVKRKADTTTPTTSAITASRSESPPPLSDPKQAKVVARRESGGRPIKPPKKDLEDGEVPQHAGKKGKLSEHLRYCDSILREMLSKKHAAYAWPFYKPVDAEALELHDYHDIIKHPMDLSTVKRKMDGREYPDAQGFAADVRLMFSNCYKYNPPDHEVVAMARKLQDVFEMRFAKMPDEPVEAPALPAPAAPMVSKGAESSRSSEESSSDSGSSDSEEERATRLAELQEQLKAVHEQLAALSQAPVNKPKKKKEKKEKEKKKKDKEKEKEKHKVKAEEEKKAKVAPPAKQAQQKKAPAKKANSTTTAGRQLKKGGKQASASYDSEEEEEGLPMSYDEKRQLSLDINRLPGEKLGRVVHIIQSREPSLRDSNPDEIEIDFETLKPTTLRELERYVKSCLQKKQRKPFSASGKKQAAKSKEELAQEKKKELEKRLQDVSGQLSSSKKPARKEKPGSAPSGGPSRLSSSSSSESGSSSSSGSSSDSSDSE

[3] = biological target: Bromodomain-containing protein 2 (Homo sapiens, UniProt P25440); experiment: as §1
Sequence of Bromodomain-containing protein 2 (P25440 whole entry): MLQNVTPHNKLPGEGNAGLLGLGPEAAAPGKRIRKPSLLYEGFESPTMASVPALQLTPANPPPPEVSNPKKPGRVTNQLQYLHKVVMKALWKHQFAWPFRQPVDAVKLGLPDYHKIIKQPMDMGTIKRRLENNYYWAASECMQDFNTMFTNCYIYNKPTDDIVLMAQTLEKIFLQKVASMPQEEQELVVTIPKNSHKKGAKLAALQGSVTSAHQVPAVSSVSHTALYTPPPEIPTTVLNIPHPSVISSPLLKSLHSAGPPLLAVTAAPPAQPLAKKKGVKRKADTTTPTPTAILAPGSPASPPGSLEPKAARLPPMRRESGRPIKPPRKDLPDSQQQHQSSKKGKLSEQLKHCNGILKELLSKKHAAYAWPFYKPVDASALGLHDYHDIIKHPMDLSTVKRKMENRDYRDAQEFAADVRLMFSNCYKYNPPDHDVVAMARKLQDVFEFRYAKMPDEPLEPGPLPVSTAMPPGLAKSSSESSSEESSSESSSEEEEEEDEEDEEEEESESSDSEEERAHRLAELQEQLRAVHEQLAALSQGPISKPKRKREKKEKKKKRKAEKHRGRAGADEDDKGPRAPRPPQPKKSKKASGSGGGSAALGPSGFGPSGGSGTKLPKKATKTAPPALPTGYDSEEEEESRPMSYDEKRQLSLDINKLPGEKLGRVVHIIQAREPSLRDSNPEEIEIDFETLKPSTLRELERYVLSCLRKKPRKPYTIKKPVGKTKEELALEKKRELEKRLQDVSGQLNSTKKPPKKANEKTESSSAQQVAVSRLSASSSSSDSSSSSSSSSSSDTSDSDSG

| IC50 [2] | Compound | IC50 (CREB-binding protein) | IC50 [1] | IC50 [3] |
| --- | --- | --- | --- | --- |
| 0.062 µM | CCOc1ncccc1-n1nc(C)c2c1C(c1ccc(Cl)cc1)N(c1cc(C)c(=O)n(C)c1)C2=O (stereo unspecified) | 3.1 µM | 0.079 µM |  |
|  | COc1ncccc1-n1nc(C)c2c1C(c1ccc(Cl)cc1)N(c1cc(C)c(=O)n(C)c1)C2=O (stereo unspecified) | 4 µM | 0.086 µM | 0.078 µM |
